# In patent publication US20250009695A1, “COMPOSITIONS AND METHODS FOR PROMOTING GLYCOGEN SYNTHASE ACTIVITY AND AUGMENTING GLYCOGEN STORAGE CAPABILITY” (NANJING NUTRABUILDING BIO-TECH CO., LTD., priority 2021, published 2025):
# Assays:
# [1] = Effect of oral BAIBA administration on liver and skeletal muscle glycogen levels in obese (HFD) mice; assay type: in vivo; conditions: for hepatic glycogen levels (change, in words) / muscle glycogen levels (change, in words): HFD mice, better than exercise alone; for Liver glycogen / Muscle glycogen: obese mice on HFD, oral, week 9-16, P < 0.05 vs Model; for Liver glycogen: main lobe of liver; for Muscle glycogen: soleus muscle
# Text: Post quarantine, animals were acclimatized for one week and subsequently the animals were randomized based on body weight stratification. Initially, mice were allocated broadly into two groups with one group receiving the Normal Diet (ND) representing normal subjects and the other receiving a defined High Fat Diet (HFD) representing obese subjects. The HFD was a defined lard-based diet procured from Research Diets, New Jersey, USA (Product No.—D12492, with 60 Kcal % from fat, 20 Kcal % from proteins, and 20 Kcal % from carbohydrates; Lot no. 20050105 and expiry date 30 Nov. 2020). The ND was a defined control diet procured from Hylasco Biotechnology Pvt. Ltd, manufactured by PMI Nutrition International (Batch no. MAY06202 and expiry date February 2021) containing similar nutrients as HFD but with 13 Kcal % from fat, 17 Kcal % from proteins, and […].
# The mice in the respective groups were put on ND and HFD for 8 weeks starting at age of ˜8 weeks. Food was offered twice a week by replacing the left-over feed with fresh feed and total weekly feed consumption was calculated and expressed as g feed/day/animal. Bodyweight was recorded once a week. At the end of 8 weeks (Day 57), mean body weight was measured, and animals were randomized based on body weight stratification and grouped separately into respective ND and HFD groups shown in the following experimental design. After the feeding/induction period (Week 1 to 8), the treatment period was from Week 9 to Week 16. A total of 36 mice were randomly grouped into six groups with n=6 in each group. Control Group: Normal mice, maintained on normal diet for 8 weeks, receiving neither exercise nor L-BAIBA treatment. Model Group: Obese mice, maintained on HFD for 8 weeks, receiving neither exercise nor L-BAIBA treatment. Exercise Group: Obese mice, maintained on HFD for 8 weeks, receiving only exercise and no L-BAIBA treatment. BAIBA Group: Obese mice, maintained on HFD for 8 weeks, receiving only LBAIBA treatment and no exercise. Exercise+BAIBA Group: Obese mice, maintained on HFD for 8 weeks, receiving L-BAIBA treatment and exercise.
# A regular treadmill (PowerMax) used by humans was availed for subjecting mice to daily exercise. A special lane box made of Perspex was used to fabricate the treadmill's running platform, forming a modified 6-lane rodent treadmill allowing 6 animals to run simultaneously. The mice in the specified groups were exercised daily throughout the treatment period (week 9-16). Exercise consisted of treadmill running at a speed 3.0 m/min with no inclination of the treadmill. Mice were allowed to freely explore the treadmill until each mouse had explored its lane and the treadmill was turned on with a slow increase in the speed until animals begin running at set speed. During the first week of the treatment period, as an introduction the mice were forced to running exercise for 8 minutes. Subsequently, the exercise duration was increased to 9 minutes during the following week. The exercise duration was finally set to 10 minutes daily for the rest of weeks. Exercise took place in a room separated from the actual housing room to which all mice were transferred and kept during the exercise procedures in order to minimize environmental confounders among the mice not subjected to the exercise protocol. […] Entire procedure was supervised by study personnel and no abnormal behavior of animals was observed. Forced treadmill exercise was carried out at preferred lux and noise free conditions.
# After completion of 8 weeks of experimentation (at the end of treatment on the day 114), animals were euthanized using an overdose of isoflurane (20% v/v in propylene glycol in a glass vacuum desiccator). The whole soleus muscle tissues and a sample of the main lobe of the liver were used to measure glycogen content using a modified protocol described in Methods in Enzymology Vol. III (Colowick and Kaplan, 1957).
# [2] = Effect of BAIBA on liver and skeletal muscle glycogen content in normal mice (ELISA kits); assay type: in vivo, C57 mice; conditions: oral gavage 2 weeks, compared to Exercise group; for glycogen levels in liver tissue (change, in words): FIG. 1; for glycogen levels in muscle tissue (change, in words): FIG. 3
# Method: (§1) SPF-grade male C57 mice (8 weeks old) were purchased from Nanjing Qinglongshan Laboratory Animal Breeding Center. Mice were housed individually in a steel cage in a room at 24° C. with a 12:12 h (Light:Dark) photoperiod and standard diet. Food and water were provided ad libitum. Forty mice were randomly divided into five groups. Control Group: Receiving neither exercise nor L-BAIBA treatment. Exercise Group: Receiving only exercise and no L-BAIBA treatment. BAIBA Group: Receiving only L-BAIBA treatment and no exercise. Pre-workout Group: Receiving L-BAIBA treatment before exercise. Post-workout Group: Receiving L-BAIBA treatment after exercise. Samples were administered orally (gavage volume was 0.1 mL/10 g per mouse) via a gavage tube for 2 weeks.
# (§2) The exercise consisted of treadmill running at a speed of 3.0 m/min with no inclination of the treadmill. Mice were allowed to freely explore the treadmill until each mouse had explored its lane and the treadmill was turned on with a slow increase in the speed until animals begin running at set speed. During the first week of the treatment period, as an introduction the mice were forced to running exercise for 8 minutes. Subsequently, the exercise duration was increased to 9 minutes during the following week. The exercise duration was finally set to 10 minutes daily for the rest of weeks.
# After 30 minutes of exercise on day 14th, mice were injected with 0.1 to 0.3 ml 1% thiopental sodium intraperitoneally in order to general anesthesia. The soleus of the hind limbs of mice and liver were taken to detect the content of glycogen contents and glycogen synthetase with ELISA Kits.
# glycogen synthetase = experiment: Effect of BAIBA on muscle glycogen synthetase content in normal mice (ELISA kits); assay type: in vivo, C57 mice; conditions: L-BAIBA administration, oral gavage 2 weeks, soleus, FIG. 4
# Method: as §1
# as §2, with “weeks. […]” for “weeks.”
# [3] = combination of L-BAIBA and exercise
# [4] = L-BAIBA treatment and daily treadmill exercise
# [5] = L-BAIBA treatment only, no exercise
# [6] = Post-workout Group (L-BAIBA after exercise)
# [7] = Pre-workout Group (L-BAIBA before exercise)
compound,measurement,setting,value
"CC(CN)C(=O)O (stereo not drawn) [BAIBA, β-aminoisobutyric acid]","hepatic glycogen levels (change, in words)",[1]; L-BAIBA administration alone,significant increase
same,"muscle glycogen levels (change, in words)",[1]; L-BAIBA administration alone,significant increase
same,"hepatic glycogen levels (change, in words)",[1]; [3],significant increase
same,"muscle glycogen levels (change, in words)",[1]; [3],significant increase
same,Liver glycogen,[1]; [4],9.95 ± 0.61 mg/g tissue
same,Muscle glycogen,[1]; [4],0.29 ± 0.08 mg/g tissue
same,Liver glycogen,[1]; [5],9.66 ± 1.19 mg/g tissue
same,Muscle glycogen,[1]; [5],0.31 ± 0.06 mg/g tissue
same,"glycogen levels in liver tissue (change, in words)",[2]; [6],increase
same,"glycogen levels in muscle tissue (change, in words)",[2]; [6],increase
same,"glycogen levels in liver tissue (change, in words)",[2]; [7],increase
same,"glycogen levels in muscle tissue (change, in words)",[2]; [7],increase
same,"muscle glycogen synthetase content (change, in words)",glycogen synthetase,significant increase
